Assay results reported in article PMC3587609, “A Novel Cell-Penetrating Peptide Derived from Human Eosinophil Cationic Protein” (PLoS ONE, 2013).

System: Beas-2B cells
Test: Flow cytometry: internalization of FITC-peptides into Beas-2B cells
Type: cell-based
Details: 5 µM FITC-peptides, 37°C, 1 h, washed, trypsinized 37°C 15 min, cells treated with ECP32–41 set as 100%, mean ± S.D., n = 4
Protocol: Internalization of FITC-ECP^32–41 and FITC-EDN^32–41 was measured as the median ﬂuorescence intensity (MFI) of 6.0×10^5 Beas-2B cells that had been treated with one of the FITC-labelled peptides (1 to 20 µM) at 37°C for 1 h, and then treated with trypsin to remove surface-bound peptides. […] When Beas-2B cells were treated with 5 µM of a FITC-peptide at 37°C, the fluorescent signal for FITC-ECP^32–41 increased within 5 min, and reached plateau at 30 min (Figure 1B).
Figure 1 Internalization of ECP^32–41 and EDN^32–41. (A) Beas-2B cells were incubated with 1, 5, 10, or 20 µM FITC-ECP^32–41, FITC-EDN^32–41, or FITC at 37°C for 1 h. […] (B) Beas-2B cells were incubated with 5 µM FITC-ECP^32–41, FITC-EDN^32–41, or FITC at 37°C for 5, 10, 30, or 60 min. The cells were then treated as described in (A) and subjected to flow cytometry. The results in (A) and (B) are expressed as the mean ± standard deviation (S.D.), n = 3. (C) Beas-2B cells were incubated with 5 µM FITC-ECP^32–41, FITC-EDN^32–41, or FITC at 37°C for 5 or 60 min before CLSM. Nuclei were stained with Hoechst 34850. Scale bar: 20 µm.
Cells (3.0×10^5/well) were added into six-well plates and cultured in the indicated medium. […] The fluorescent intensities of the cell samples were measured using a FACSCalibur flow cytometer (BD Biosciences, Franklin Lakes, NJ) and excitation and emission wavelengths of 488 nm and 515–545 nm respectively. […]

NYRWRCKNQN [ECP^32–41] was tested, and the “Penetrating (%)” value was 100%.
